Series [1] concerns WM 266-4. The experiment in a line: Inhibition of cell invasiveness in human WM266-4 cells at 10 uM measured after 4 hrs by DiffQuick staining based light microscopic analysis. The series is classed as functional.
The test system of series [2] is WM 266-4. Kind of series: Induction of apoptosis in human WM266-4 cells assessed as early apoptotic cells at 1 uM measured after 72 hrs by Annexin V-FITC and PI staining based flow cytometry analysis (reference value: 0.2%). In kind it is functional.
Series [3] relates to WM 266-4. Kind of series: Induction of apoptosis in human WM266-4 cells assessed as viable cells at 1 uM measured after 72 hrs by Annexin V-FITC and PI staining based flow cytometry analysis (reference value: 98.2%). In kind it is functional. Particulars: read-out: Activity. On the technique in general: In flow cytometry, cells or beads pass a laser one at a time.
The next series concerns A549. The experiment in a line: Antiproliferative activity against human A549 cells assessed as inhibition of cell growth measured after 72 hrs by MTT assay. The series is classed as functional, cell-based. Particulars: A549, 72 h. Background: Formazan colour is commonly taken as a measure of viable cells.
In series [4] the test system is WM 266-4. The experiment in a line: Inhibition of clonogenicity in human WM266-4 cells assessed as proportion of cell colonies at 1 uM measured after 72 hrs relative to control. In kind it is functional. More on the design: scale not given: the % may be the effect or the level left.
Series [5] has as its system WM 266-4. Kind of series: Induction of apoptosis in human WM266-4 cells assessed as necrotic cells at 1 uM measured after 72 hrs by Annexin V-FITC and PI staining based flow cytometry analysis (reference value: […]). The series is classed as functional.
For series [6], the system named is WM 266-4. Kind of series: Inhibition of cell growth in human WM266-4 cells measured after 24 hrs. In kind it is functional, cell-based. Particulars: WM 266-4, 24 h.
The test system of series [7] is WM 266-4. The experiment in a line: Induction of apoptosis in human WM266-4 cells assessed as late apoptotic cells at 1 uM measured after 72 hrs by Annexin V-FITC and PI staining based flow cytometry analysis (reference value: 0.5%). The series is classed as functional.
Series [8] is described as follows: Chemostability of the compound in phosphate buffer assessed as compound hydrolysis at pH 7.4 measured after 7 hrs by LC-MS analysis. The series is classed as physicochemical. Particulars: pH 7.4, 7 h.
Series [9] can be described thus: Chemostability of the compound in acetate buffer at pH 5.2 measured upto 48 hrs by LC-MS analysis. The series is classed as physicochemical. Particulars: pH 5.2, 48 h.
The nature of series [10]: Drug metabolism in human plasma assessed as gemcitabine release at 1 ug/ml by LC-MS/MS analysis. Particulars: dose 1 µg/ml. In kind it is ADME, cell-free.
A short description of series [11]: Chemostability of the compound in phosphate buffer assessed as residual parent compound concentration at pH 7.4 measured after 24 hrs by LC-MS analysis. The series is classed as physicochemical. Particulars: read-out: Activity.
Series [12] can be described thus: Drug metabolism in human plasma assessed as release of 2',2'-difluorodeoxyuridine metabolite at 1 ug/ml by LC-MS/MS analysis. The series is classed as ADME, cell-free. As to conditions: dose 1 µg/ml.
Series [13] can be described thus: Drug metabolism in C57BL/6 naive mouse blood assessed as release of gemcitabine metabolite at 10 mg/kg, ip measured after 6 hrs by LC-MS/MS analysis. In kind it is ADME, organism-based. Particulars: in vivo.
Series [14] is described as follows: Drug uptake in C57BL/6 naive mouse blood at 10 mg/kg, ip measured after 24 hrs by LC-MS/MS analysis. In kind it is ADME, organism-based. Particulars: C57BL/6, mouse, whole blood, read-out: Drug uptake.
Series [15] is described as follows: Stability of the compound in human A549 cells assessed as parent compound concentration at 10 uM measured per 2 x 10^6 cells after 4 hrs by LC-MS/MS analysis. In kind it is ADME, cell-based. As to conditions: a549, 4 h.
A short description of series [16]: Drug uptake in C57BL/6 naive mouse blood at 10 mg/kg, ip measured after 1 hr by LC-MS/MS analysis. The series is classed as ADME, organism-based. Particulars: C57BL/6, mouse, whole blood, read-out: Drug uptake.
The nature of series [17]: Stability of the compound in C57BL/6 naive mouse blood at 10 mg/kg, ip measured for 1 hr by LC-MS/MS analysis. The series is classed as ADME, organism-based. As to conditions: in vivo.
Series [18] in a line: Drug uptake in C57BL/6 naive mouse blood at 10 mg/kg, ip measured after 0.5 hrs by LC-MS/MS analysis. In kind it is ADME, organism-based. As to conditions: C57BL/6, mouse, whole blood, read-out: Drug uptake.
Series [19] in a line: Stability of the compound in DMEM-F12 medium measured for 70 hrs by LC-MS/MS analysis. In kind it is physicochemical.
The nature of series [20]: Drug metabolism in human A549 cells assessed as gemcitabine metabolite formation at 10 uM measured per 2 x 10^5 cells after 24 hrs by LC-MS/MS analysis. As to conditions: a549, 24 h. The series is classed as ADME, cell-based.
The nature of series [21]: Drug uptake in human A549 cells at 20 uM in presence of alphavbeta3 integrin […]-cilengitide incubated for 2 hrs by LC-MS analysis. In kind it is cell-based. As to conditions: a549, 2 h.
A short description of series [22]: Drug uptake in C57BL/6 naive mouse blood at 10 mg/kg, ip measured after 6 hrs by LC-MS/MS analysis. In kind it is ADME, organism-based. Particulars: C57BL/6, mouse, whole blood, read-out: Drug uptake.
Series [23] in a line: Drug metabolism in C57BL/6 naive mouse blood assessed as release of gemcitabine metabolite at 10 mg/kg, ip measured after 2 hrs by LC-MS/MS analysis. The series is classed as ADME, organism-based. Particulars: in vivo.
A short description of series [24]: Drug metabolism in C57BL/6 naive mouse blood assessed as release of gemcitabine metabolite at 10 mg/kg, ip measured after 0.25 hrs by LC-MS/MS analysis. Particulars: in vivo. The series is classed as ADME, organism-based.
Series [25] in a line: Drug metabolism in C57BL/6 naive mouse blood assessed as release of gemcitabine metabolite at 10 mg/kg, ip measured after 8 hrs by LC-MS/MS analysis. The series is classed as ADME, organism-based. Particulars: in vivo.
The nature of series [26]: Drug uptake in C57BL/6 naive mouse blood at 10 mg/kg, ip measured after 8 hrs by LC-MS/MS analysis. In kind it is ADME, organism-based. Particulars: C57BL/6, mouse, whole blood, read-out: Drug uptake.
The nature of series [27]: Drug uptake in C57BL/6 naive mouse blood at 10 mg/kg, ip measured after 2 hrs by LC-MS/MS analysis. The series is classed as ADME, organism-based. Particulars: C57BL/6, mouse, whole blood, read-out: Drug uptake.
The nature of series [28]: Drug uptake in C57BL/6 naive mouse blood at 10 mg/kg, ip measured after 4 hrs by LC-MS/MS analysis. In kind it is ADME, organism-based. As to conditions: C57BL/6, mouse, whole blood, read-out: Drug uptake.
Series [29] can be described thus: Drug metabolism in human A549 cells assessed as 2',2'-difluorodeoxyuridine metabolite concentration at 10 uM measured per 2X10^5 cells after 24 hrs by LC-MS/MS analysis. Particulars: a549, 24 h. The series is classed as ADME, cell-based.
The nature of series [30]: Drug metabolism in C57BL/6 naive mouse blood assessed as release of gemcitabine metabolite at 10 mg/kg, ip measured after 24 hrs by LC-MS/MS analysis. As to conditions: in vivo. The series is classed as ADME, organism-based.
Series [31] in a line: Drug metabolism in C57BL/6 naive mouse blood assessed as release of gemcitabine metabolite at 10 mg/kg, ip measured after 0.5 hrs by LC-MS/MS analysis. The series is classed as ADME, organism-based. As to conditions: in vivo.
Series [32] in a line: Drug metabolism in C57BL/6 naive mouse blood assessed as release of gemcitabine metabolite at 10 mg/kg, ip measured after 1 hr by LC-MS/MS analysis. In kind it is ADME, organism-based. Particulars: in vivo.
Series [33] can be described thus: Drug uptake in C57BL/6 naive mouse blood at 10 mg/kg, ip measured after 0.25 hrs by LC-MS/MS analysis. In kind it is ADME, organism-based. Particulars: C57BL/6, mouse, whole blood, read-out: Drug uptake.
The nature of series [34]: Stability of the compound in human plasma at 1 ug/ml measured for 4 hrs by LC-MS/MS analysis. In kind it is ADME, cell-free. As to conditions: at 1 µg/mL.
Series [35] in a line: Drug uptake in human A549 cells at 20 uM in presence of alphavbeta3 integrin […], c(RGDyK) incubated for 2 hrs by LC-MS analysis. As to conditions: a549, 2 h. In kind it is cell-based.
A short description of series [36]: Chemostability of the compound in phosphate buffer buffer at pH 7.4 measured upto 48 hrs by LC-MS analysis. In kind it is physicochemical. Particulars: pH 7.4, 48 h.
A short description of series [37]: Drug metabolism in C57BL/6 naive mouse blood assessed as release of gemcitabine metabolite at 10 mg/kg, ip measured after 4 hrs by LC-MS/MS analysis. In kind it is ADME, organism-based. Particulars: in vivo.

Activity calls are given as the source filed them. No cut-off for these calls is given here.

On to `N=C(N)NCCC[C@@H]1NC(=O)[C@H](CCCCN)NC(=O)[C@@H](Cc2ccc(O)cc2)NC(=O)[C@H](CC(=O)O)NC(=O)CNC1=O`, for which the inhibition result in the series with WM 266-4 [1] was “Active”.

A word on the IC50: it is the concentration at which inhibition is half-maximal. Consider `Nc1ccn([C@@H]2O[C@H](CO)[C@@H](O)C2(F)F)c(=O)n1` [GEMCITABINE], for which the Activity in the series with WM 266-4 [2] was 4.1%; in the series on WM 266-4 [4], 46.6%; with WM 266-4 [5] it was 12.4%; in the series on WM 266-4 [7], 5.1%. In addition, the viability at 1 µM in the series on WM 266-4 [3] was found to be 78.3%. Moreover, the IC50 with A549 came to 18.8 nM; in the series on WM 266-4 [6], 17800 nM.

Turning to `N=C(N)NCCC[C@@H]1NC(=O)[C@H](CCCCNC(=O)OCCSSCCOC(=O)OC[C@H]2O[C@@H](n3ccc(N)nc3=O)C(F)(F)[C@@H]2O)NC(=O)[C@@H](Cc2ccc(O)cc2)NC(=O)[C@H](CC(=O)O)NC(=O)CNC1=O`, the Activity worked out at 0.3% with WM 266-4 [2], 4.9% in the series on WM 266-4 [4], 31.1% with WM 266-4 [5] and 2.2% with WM 266-4 [7]. Also, the Stability result was “Unstable” in [8] and “Stable” in series [9]. Moreover, the viability at 1 µM in the series with WM 266-4 [3] was found to be 66.4%. Besides, the 50% inhibitory concentration (IC50) in the series on A549 was 30.6 nM; in the series with WM 266-4 [6] it was over 100000 nM. Also, the Drug metabolism entry in series [10] and in [12] was “Metabolite_Detected” in each case. In addition, in the series with WM 266-4 [1], the inhibition result is “Active”. Also, in series [11], the remaining at 24 h stood at 85%.

Regarding `N=C(N)NCCC[C@@H]1NC(=O)[C@H](CCCCNC(=O)OC[C@H]2O[C@@H](n3ccc(N)nc3=O)C(F)(F)[C@@H]2O)NC(=O)[C@@H](Cc2ccc(O)cc2)NC(=O)[C@H](CC(=O)O)NC(=O)CNC1=O`, the Drug metabolism in series [13] is 11 nM; in series [20], under 0.05 ng; in [23] it was 6 nM; in series [24] it was 748 nM; in series [25], 40 nM; in [29], 4 ng. For the same compound, the Drug metabolism in [30] was determined as 3 nM; in [31], 33 nM; in series [32], 46 nM; in [37] it was 7 nM. The concentration at 24 h in series [14] came out at 14 nM. In addition, the figures for the Drug uptake in [15], in series [21] and in series [35] were 5 ng, “Not Active” and “Not Active”, respectively. Besides, the concentration at 1 h in series [16] is 3320 nM. In addition, the Stability result in [17], in series [19], in series [9], in series [34] and in series [36] was “Stable” in each case. In addition, in series [18], the concentration at 0.5 h amounted to 8470 nM. The Activity in the series with WM 266-4 [2] was 1.3%; in the series on WM 266-4 [4] it was 8.3%; in the series on WM 266-4 [5], 21.7%; in the series on WM 266-4 [7], 4.8%. The viability at 1 µM with WM 266-4 [3] amounted to 72.3%. Also, in series [22], the concentration at 6 h was determined as 168 nM. Besides, the values for the IC50 with A549 and in the series with WM 266-4 [6] were 678 nM and 57600 nM, respectively. Also, in series [26], the concentration at 8 h was 11 nM. Further, in the series on WM 266-4 [1], the inhibition result is “Active”. Also, the concentration at 2 h in series [27] was found to be 547 nM. In addition, the concentration at 4 h in series [28] was 38 nM. Further, the concentration at 0.25 h in [33] came out at 6660 nM.

The values above are taken from ChEMBL document CHEMBL5046252, “Integrin-Mediated Targeted Cancer Therapy Using c(RGDyK)-Based Conjugates of Gemcitabine” (J Med Chem, 2022).
